# According to patent publication US4145554A, “3-Nitropyrazole derivatives” (Eli Lilly and Company, priority 1977, dated 1979):
# Several values for one entry are separate records, joined by “and”; a condition that tells them apart may be missing. Equal entries are not always repeated.
# Assays:
# Shigella sp. = experiment: agar dilution technique (MIC); type: cell-based
# Erwinia amylovora = experiment: Fire blight of pear, in vivo greenhouse test
# Protocol: An in vivo test was conducted against the fire blight organism, Erwinia amylovora. Plants infected with E. amylovora were sprayed with aqueous dispersions containing 100 ppm. and 500 ppm. of the test compounds. […] The compounds are identified below by their compound numbers in the above listing.
# Pseudomonas aeruginosa = experiment: agar dilution technique (MIC); type: cell-based
# Salmonella typhosa = experiment: agar dilution technique (MIC); details: Salmonella enterica
# [1] = system: Streptococcus sp. (group D); experiment: agar dilution technique (MIC); type: cell-based
# Mima polymorpha = experiment: agar dilution technique (MIC); type: cell-based
# E. coli = experiment: Tests in mice, E. coli infection; type: in vivo
# Protocol: Groups of laboratory mice were inoculatd with E. coli or with Streptococcus pyogenes. The 3-nitropyrazoles were administered in two different modes to the infected mice. In one group of tests, the compound was administered in two subcutaneous doses of 83 mg./kg. each, given 1 and 5 hours after the mice were inoculated with the organism. The mice were observed, and the results reported below as the number of days the treated mice survived the challenge.
# In the other group of tests, the dose of each compound which allowed 50 percent of the treated mice to survive the challenge was determined. Again, the compound was administered in subcutane divided doses, 1 and 5 hours post-inoculation.
# Mycoplasma hyosynoviae = experiment: in vitro tube dilution test (MIC); type: cell-based
# P. multocida [2] = experiment: Pasteurellosis in chickens; type: in vivo; details: 100 gm. per ton of feed
# [3] = system: Pasteurella multocida and P. hemolytica; experiment: Pasteurella pneumonia in calves; type: in vivo
# Salmonella typhimurium = experiment: Salmonellosis in chickens, single injection to day-old chicks; type: in vivo; details: Salmonella enterica, TYPHIMURIUM, 168 h; single injection of 60 mg./kg.; seven days; read-out: Survival (converted)
# Method in brief: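 Five day-old chicks per group received one injection of compound at 60 mg./kg., then were challenged next day by subcutaneous S. typhimurium at a dose lethal to most or all untreated controls. Read-out is survivor count, pooled over repeat groups, with untreated challenged controls run in each batch.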
# Salmonella sp. = experiment: in vitro tube dilution test (MIC); type: cell-based
# Description: Our compound, 1-(2-hydroxyethyl)-3-nitro-4-pyrazolecarboxamide, has been extensively tested in vitro to determine the range of microorganisms against which it is active. The table of data below reports the minimum inhibitory concentration (MIC) at which the compound is effective in controlling a variety of microorganisms in a standard tube dilution test system. The MIC is reported as micrograms of compound per milliliter.
# Alkaligenes fecalis = experiment: agar dilution technique (MIC); type: cell-based
# Staphylococcus sp. = experiment: in vitro tube dilution test (MIC); type: cell-based
# H. meleagridis = experiment: Blackhead in poultry, turkeys; type: in vivo
# P. multocida [4] = experiment: Pasteurellosis in turkeys; type: in vivo; details: 100 gm./ton
# [5] = Growth promotion in swine; type: in vivo; details: 300 gm./ton; 28 days
# Description: The same 3-nitropyrazole tested above was used in a growth promotion test in swine. The pigs weighed 25-30 lbs. when the test began, and were housed and fed according to good commercial practice for 28 days. The pigs in the treated group received feed containing 300 gm. per ton of the 3-nitropyrazole compound.
# avian E. coli = experiment: Colibacillosis in chickens, medicated feed; type: in vivo
# [6] = 8 days after challenge, 25 mg. per kg. intramuscular
# [7] = 100 gm./ton, 10^-1 dilution challenge, initial weight 940 gm.
# [8] = 100 gm./ton, further test, about 5 weeks of age
# [9] = 200 gm./ton, 10^-1 dilution challenge, initial weight 940 gm.
# [10] = 200 gm./ton, further test, about 5 weeks of age
# [11] = 300 gm./ton feed, about 5 weeks old, 10^-2 dilution challenge, first test
# [12] = 300 gm./ton, 10^-1 dilution challenge, initial weight 940 gm.
smiles,measurement,setting,value
"NC(=O)c1cn(CCO)nc1[N+](=O)[O-] [Compound 32, 1-(2-hydroxyethyl)-3-nitro-4-pyrazolecarboxamide]",MIC,Shigella sp.,16 µg/mL
same,Percent Control of fire blight,Erwinia amylovora; 100 ppm.,50%
same,Percent Control of fire blight,Erwinia amylovora; 500 ppm.,92%
same,MIC,Pseudomonas aeruginosa,128 µg/mL
same,MIC,Salmonella typhosa,2 µg/mL
same,MIC,[1],32 µg/mL
same,MIC,Mima polymorpha,2 µg/mL
same,ED50,"E. coli; Escherichia coli, sc, subcutaneous, 1 and 5 hours post-inoculation",19.6 mg/kg
same,Days Survived,"E. coli; two subcutaneous doses of 83 mg./kg., 1 and 5 hours",7.0 days
same,MIC,Mycoplasma hyosynoviae,50 µg/mL
same,Mortality,P. multocida [2],about 12%
same,presence of isolable P. multocida in treated birds,P. multocida [2],about half of the treated birds
same,Culture Isolation,P. multocida [2]; individual 8-bird group,6/8 and 3/8
same,Mortality Rate,P. multocida [2]; individual 8-bird group,2/8 and 0/8
same,"Culture Isolation, Total",P. multocida [2]; total of two groups,9/16
same,"Mortality Rate, Total",P. multocida [2]; total of two groups,2/16
same,pasteurellae identified in lungs,[3]; [6],No pasteurellae were identified in the lungs of any of the three animals
same,physical examination of lungs,[3]; [6],minor consolidation or emphysema in areas of the lungs
same,extent of pasteurella infection,"[3]; indicated by temperatures, 25 mg. per kg. intramuscular",only a very mild pasteurella infection
same,Average Temperature,"[3]; post-challenge, 25 mg. per kg. intramuscular daily for five days",102.7 ° F.
same,responders at 60 mg/kg,Salmonella typhimurium,93.3%
same,MIC,Salmonella sp.,3.12 µg/mL
same,MIC,Alkaligenes fecalis,128 µg/mL
same,MIC,Staphylococcus sp.,3.12 µg/mL
same,Active Level (lowest feed concentration which gave an active response),H. meleagridis,.02%
same,Mortality Rate,P. multocida [4],20%
same,Culture Isolation,P. multocida [4]; about 5 mg./kg./day,1/5
same,Mortality Rate,P. multocida [4]; about 5 mg./kg./day,1/5
same,Average Daily Feed Consumption,[5],2.00 lbs.
same,Average Daily Gain,[5],1.01 lbs.
same,Feed/Gain,[5],1.96
same,Avg. Wt.,avian E. coli; [7],1239 gm.
same,E. coli Lesions,avian E. coli; [7],17/18
same,Mortality,avian E. coli; [7],0/18
same,Mortality,"avian E. coli; 100 gm./ton, approximately 7-week-old chickens",3/12
same,E. coli Lesions,"avian E. coli; 100 gm./ton, approximately 7-week-old chickens, birds which died not examined",5/9
same,Avg. Wt.,avian E. coli; [8],1209 gm.
same,E. coli Lesions,avian E. coli; [8],37/40
same,Mortality,avian E. coli; [8],6/40
same,Avg. Wt.,avian E. coli; [9],1250 gm.
same,E. coli Lesions,avian E. coli; [9],16/18
same,Mortality,avian E. coli; [9],0/18
same,Avg. Wt.,avian E. coli; [10],1353 gm.
same,E. coli Lesions,avian E. coli; [10],31/40
same,Mortality,avian E. coli; [10],2/40
same,E. coli Lesions,avian E. coli; [11],11/30
same,Mortality,avian E. coli; [11],0/30
same,Wt.,avian E. coli; [11],1103 gm.
same,Avg. Wt.,avian E. coli; [12],1302 gm.
same,E. coli Lesions,avian E. coli; [12],5/18
same,Mortality,avian E. coli; [12],0/18
same,Mortality,"avian E. coli; 300 gm./ton, approximately 7-week-old chickens",0/12
same,E. coli Lesions,"avian E. coli; 300 gm./ton, approximately 7-week-old chickens, birds which died not examined",4/12
same,Mortality,"avian E. coli; 600 gm./ton, approximately 7-week-old chickens",0/12
same,E. coli Lesions,"avian E. coli; 600 gm./ton, approximately 7-week-old chickens, birds which died not examined",2/12
same,Mortality,"avian E. coli; 1000 gm./ton, approximately 7-week-old chickens",0/12
same,E. coli Lesions,"avian E. coli; 1000 gm./ton, approximately 7-week-old chickens, birds which died not examined",0/12
